Legend:
Ovis aries = organism: Ovis aries; test: Inhibition of sheep brain tubulin polymerization at 100 uM by fluorescence assay
[1] = Growth inhibition of human MOLT4 cells at 10^-5 M after 48 hrs by SRB assay; format: functional; conditions: MOLT-4, 48 h, read-out: GI
HL-60(TB) [2] = test: Growth inhibition of human HL-60(TB) cells at 10^-5 M after 48 hrs by SRB assay; format: functional; conditions: HL-60, 48 h, read-out: GI
[3] = Growth inhibition of human HOP92 cells at 10^-5 M after 48 hrs by SRB assay; format: functional; conditions: HOP-92, 48 h, read-out: GI
NCI-H522 [4] = test: Growth inhibition of human NCI-H522 cells at 10^-5 M after 48 hrs by SRB assay; format: functional; conditions: NCI-H522, 48 h, read-out: GI
[5] = Growth inhibition of human HCT116 cells at 10^-5 M after 48 hrs by SRB assay; format: functional; conditions: HCT-116, 48 h, read-out: GI
[6] = Growth inhibition of human HCT15 cells at 10^-5 M after 48 hrs by SRB assay; format: functional; conditions: HCT-15, 48 h, read-out: GI
MDA-MB-435 [7] = test: Growth inhibition of human MDA-MB-435 cells at 10^-5 M after 48 hrs by SRB assay; format: functional; conditions: MDA-MB-435, 48 h, read-out: GI
Malme-3M = test: Growth inhibition of human MALME-3M cells at 10^-5 M after 48 hrs by SRB assay; format: functional; conditions: read-out: GI
A498 [8] = test: Growth inhibition of human A498 cells at 10^-5 M after 48 hrs by SRB assay; format: functional; conditions: A498, 48 h, read-out: GI
CAKI-1 = test: Growth inhibition of human Caki1 cells at 10^-5 M after 48 hrs by SRB assay; format: functional; conditions: CAKI-1, 48 h, read-out: GI
[9] = Growth inhibition of human PC3 cells at 10^-5 M after 48 hrs by SRB assay; format: functional; conditions: PC-3, 48 h, read-out: GI
[10] = Growth inhibition of human SF295 cells at 10^-5 M after 48 hrs by SRB assay; format: functional; conditions: SF-295, 48 h, read-out: GI
SNB-75 [11] = test: Growth inhibition of human SNB75 cells at 10^-5 M after 48 hrs by SRB assay; format: functional; conditions: SNB-75, 48 h, read-out: GI
MCF7 [12] = test: Growth inhibition of human MCF7 cells at 10^-5 M after 48 hrs by SRB assay; format: functional; conditions: MCF7, 48 h, read-out: GI
T47D = test: Growth inhibition of human T47D cells at 10^-5 M after 48 hrs by SRB assay; format: functional; parameters: Activity: scale not given: the % may be the effect or the level left; conditions: for inhibition of growth at 10 µM: Homo sapiens, T47D, 48 h, read-out: GI
SNB-75 [13] = test: Cytotoxicity against human SNB75 cells assessed as cell growth at 10^-5 M after 48 hrs by SRB assay; format: functional; conditions: SNB-75, 48 h, read-out: Activity
HL-60(TB) [14] = test: Growth inhibition of human HL-60(TB) cells after 48 hrs by SRB assay; format: functional; conditions: HL-60, 48 h
K562 = test: Growth inhibition of human K562 cells after 48 hrs by SRB assay; format: functional; conditions: K562, 48 h
SR = test: Growth inhibition of human SR cells after 48 hrs by SRB assay; format: functional
NCI-H522 [15] = test: Growth inhibition of human NCI-H522 cells after 48 hrs by SRB assay; format: functional; conditions: NCI-H522, 48 h
[16] = Growth inhibition of human COLO205 cells after 48 hrs by SRB assay; format: functional; conditions: COLO 205, 48 h
KM12 = test: Growth inhibition of human KM12 cells after 48 hrs by SRB assay; format: functional; conditions: KM12, 48 h
HT-29 = test: Growth inhibition of human HT-29 cells after 48 hrs by SRB assay; format: functional; conditions: HT-29, 48 h
MDA-MB-435 [17] = test: Growth inhibition of human MDA-MB-435 cells after 48 hrs by SRB assay; format: functional; conditions: MDA-MB-435, 48 h
SK-MEL-5 = test: Growth inhibition of human SK-MEL-5 cells after 48 hrs by SRB assay; format: functional; conditions: SK-MEL-5, 48 h
[18] = Growth inhibition of human OVCAR3 cells after 48 hrs by SRB assay; format: functional; conditions: OVCAR-3, 48 h
NCI/ADR-RES = test: Growth inhibition of human NCI/ADR-RES cells after 48 hrs by SRB assay; format: functional
A498 [19] = test: Growth inhibition of human A498 cells after 48 hrs by SRB assay; format: functional; conditions: A498, 48 h
[20] = Growth inhibition of human PC3 cells after 48 hrs by SRB assay; format: functional; conditions: PC-3, 48 h
SNB-75 [21] = test: Growth inhibition of human SNB75 cells after 48 hrs by SRB assay; format: functional; conditions: SNB-75, 48 h
MDA-MB-468 = test: Growth inhibition of human MDA-MB-468 cells after 48 hrs by SRB assay; format: functional; conditions: MDA-MB-468, 48 h
MCF7 [22] = test: Growth inhibition of human MCF7 cells after 48 hrs by SRB assay; format: functional; conditions: MCF7, 48 h
[23] = Inhibition of sheep brain tubulin polymerization by fluorescence assay; parameters: species or system Ovis aries
[24] = Growth inhibition of human EKVX cells at 10^-5 M after 48 hrs by SRB assay; format: functional; conditions: read-out: GI
HL-60(TB) [25] = test: Cytotoxicity against human HL-60(TB) cells assessed as cell growth at 10^-5 M after 48 hrs by SRB assay; format: functional; conditions: HL-60, 48 h, read-out: Activity
NCI-H522 [26] = test: Cytotoxicity against human NCI-H522 cells assessed as cell growth at 10^-5 M after 48 hrs by SRB assay; format: functional; conditions: NCI-H522, 48 h, read-out: Activity
MDA-MB-435 [27] = test: Cytotoxicity against human MDA-MB-435 cells assessed as cell growth at 10^-5 M after 48 hrs by SRB assay; format: functional; conditions: MDA-MB-435, 48 h, read-out: Activity
A498 [28] = test: Cytotoxicity against human A498 cells assessed as cell growth at 10^-5 M after 48 hrs by SRB assay; format: functional; conditions: A498, 48 h, read-out: Activity
SF-295 = test: Cytotoxicity against human SF295 cells assessed as cell growth at 10^-5 M after 48 hrs by SRB assay; format: functional; conditions: SF-295, 48 h, read-out: Activity
[29] = Cytotoxicity against human HCT116 cells assessed as cell growth at 10^-5 M after 48 hrs by SRB assay; format: functional; conditions: HCT-116, 48 h, read-out: Activity
MOLT-4 = test: Cytotoxicity against human MOLT4 cells assessed as cell growth at 10^-5 M after 48 hrs by SRB assay; format: functional; conditions: MOLT-4, 48 h, read-out: Activity

Structure (SMILES) | inhibition (Ovis aries) [%] | inhibition of growth at 10 µM [1] [%] | inhibition of growth at 10 µM (HL-60(TB) [2]) [%] | inhibition of growth at 10 µM [3] [%] | inhibition of growth at 10 µM (NCI-H522 [4]) [%] | inhibition of growth at 10 µM [5] [%] | inhibition of growth at 10 µM [6] [%] | inhibition of growth at 10 µM (MDA-MB-435 [7]) [%] | inhibition of growth at 10 µM (Malme-3M) [%] | inhibition of growth at 10 µM (A498 [8]) [%] | inhibition of growth at 10 µM (CAKI-1) [%] | inhibition of growth at 10 µM [9] [%] | inhibition of growth at 10 µM [10] [%] | inhibition of growth at 10 µM (SNB-75 [11]) [%] | inhibition of growth at 10 µM (MCF7 [12]) [%] | inhibition of growth at 10 µM (T47D) [%] | GI50 (HL-60(TB) [14]) [nM] | GI50 (SR) [nM] | GI50 (NCI-H522 [15]) [nM] | inhibition of growth at 10 µM [24] [%] | other results
COc1ccc(C(=O)c2cc(C#N)c3c(C)cc(C)cn23)cc1 | 27 | 1 | 0 | 43 | 58 | 80 | 27 | 27 | 35 | 53 | 28 | 38 | 30 | 100 | 46 | 60 | – | – | – | – | growth at 10 µM (SNB-75 [13]): -4%
CCOC(=O)c1cc(C(=O)c2cc(OC)c(OC)c(OC)c2)n2c(C)cccc12 | 83 | 96 | 100 | 26 | 100 | 91 | 78 | 100 | 63 | 100 | 63 | 77 | 100 | 88 | 86 | 63 | 34 | 33 | 66 | 57 | GI50 (K562): 53 nM; GI50 [16]: 108 nM; GI50 (KM12): 60 nM; GI50 (HT-29): 40 nM; GI50 (MDA-MB-435 [17]): 30 nM; GI50 (SK-MEL-5): 61 nM; GI50 [18]: 40 nM; GI50 (NCI/ADR-RES): 65 nM; GI50 (A498 [19]): 52 nM; GI50 [20]: 122 nM; GI50 (SNB-75 [21]): 121 nM; GI50 (MDA-MB-468): 111 nM; GI50 (MCF7 [22]): 56 nM; IC50 [23]: 8020 nM; growth at 10 µM (HL-60(TB) [25]): -42%; growth at 10 µM (NCI-H522 [26]): -32%; growth at 10 µM (MDA-MB-435 [27]): -48%; growth at 10 µM (A498 [28]): -3%; growth at 10 µM (SF-295): -32%
CCOC(=O)c1cc(C(=O)c2cc(OC)c(OC)c(OC)c2)n2ccc(C)cc12 | 72 | 50 | 92 | 88 | 100 | 100 | – | 100 | 74 | – | 66 | 79 | 85 | 82 | 88 | – | 630 | 310 | 585 | 50 | GI50 [16]: 650 nM; GI50 (KM12): 497 nM; GI50 (HT-29): 393 nM; GI50 (MDA-MB-435 [17]): 234 nM; GI50 (SK-MEL-5): 411 nM; GI50 [18]: 343 nM; GI50 (NCI/ADR-RES): 411 nM; GI50 (A498 [19]): 272 nM; GI50 [20]: 976 nM; GI50 (SNB-75 [21]): 324 nM; GI50 (MDA-MB-468): 410 nM; GI50 (MCF7 [22]): 339 nM; IC50 [23]: 28100 nM; Activity (T47D): 83%; growth at 10 µM (NCI-H522 [26]): -9%; growth at 10 µM [29]: -58%; growth at 10 µM (MDA-MB-435 [27]): -17%
CCOC(=O)c1cc(C(=O)c2cc(OC)c(OC)c(OC)c2)n2cccc(C#N)c12 | 69 | 72 | 100 | 89 | 100 | 79 | 66 | 100 | 44 | 100 | 74 | 68 | 81 | 82 | 71 | 60 | 220 | 63 | 142 | 50 | GI50 (K562): 222 nM; GI50 [16]: 171 nM; GI50 (KM12): 190 nM; GI50 (HT-29): 236 nM; GI50 (MDA-MB-435 [17]): 30 nM; GI50 (SK-MEL-5): 94 nM; GI50 [18]: 180 nM; GI50 (NCI/ADR-RES): 158 nM; GI50 (A498 [19]): 201 nM; GI50 [20]: 230 nM; GI50 (SNB-75 [21]): 164 nM; GI50 (MDA-MB-468): 332 nM; GI50 (MCF7 [22]): 252 nM; IC50 [23]: 12000 nM; growth at 10 µM (HL-60(TB) [25]): -14%; growth at 10 µM (NCI-H522 [26]): -10%; growth at 10 µM (MDA-MB-435 [27]): -29%; growth at 10 µM (A498 [28]): -13%
CCOC(=O)c1cc(C(=O)c2ccc(OC)c(OC)c2)n2ccc(OC)cc12 | 51 | 100 | – | – | 0 | 2 | 7 | 2 | 12 | 15 | 3 | 12 | 3 | 0 | 8 | 4 | – | – | – | 0 | growth at 10 µM (MOLT-4): -53%
